Test results as given in patent US20190365788A1, “CYCLIC PHOSPHATE SUBSTITUTED NUCLEOSIDE DERIVATIVES FOR THE TREATMENT OF LIVER DISEASES” (priority 2016, published 2019).
Where two headings read alike, the source gives them in different places.

Columns and labels:
HuH-1 cells = test: In vitro inhibition of HuH-1 cells (MTT proliferation assay); type: cell-based; settings: 72 h incubation, absorbance 570 nm, read-out: HuH-1: Relative IC50
Procedure: (§1) The compounds of the invention were tested in cell based in vitro assays comprising HuH-1 cells and HepG2 cells, as in vitro models for potential hepatocellular carcinoma activity.
(§2) HuH-1 cells were purchased from JCRB, HepG2 cells from ATCC, and both tested with the following method:
(§3) Cells are suspended at a specific density in a specific culture medium. Then, 100 μl of cell suspension are plated per well in 96-well plates.
(§4) Compounds or negative controls (DMSO) are added to the cells (100 μl of a compound solution in its specific medium with a final concentration of 0.15% DMSO). Each compound concentration is tested in duplicate (6 concentrations per compound). Cells are incubated at 37° C. for 72 h without treating again.
(§5) SDS is added to control wells (final concentration of 1%) and kept for 15 min at 37° C. SDS 1% represents the positive control of proliferation inhibition. Cell supernatant is removed and 100 μl of a MTT (3-[4.5-dimethylthiazol-2-yl]-2.5-diphenyltetrazolium bromide) solution in fresh medium are added per well (MTT final concentration of 0.5 mg/ml) and incubated for 4 h at 37° C. MTT reaction is stopped and homogenized by adding 100 μl/well of SDS 10%, 0.01M HCl and incubated for 2 h at 37° C. Absorbance is measured at 570 nm.

HepG2 cells = test: In vitro inhibition of HepG2 cells (MTT proliferation assay); type: cell-based; settings: 72 h incubation, absorbance 570 nm, read-out: HepG2: Relative IC50
Procedure: as §1, §2, §3, §4, §5

Human Hepatocytes = test: In vitro conversion of prodrug to nucleoside triphosphate (NTP) in human hepatocytes; type: in vitro ADME; settings: 1 hour at 10 μM prodrug, intracellular NTP
Procedure: The degree of conversion of a prodrug compound of the present invention to its corresponding nucleoside triphosphate (NTP) can be measured in vitro using the procedure described below.
A 2 mM stock solution of the prodrug test compound is prepared in 5% DMSO/95% MeOH to provide a final sample concentration of […]. A 5 μL aliquot is removed from this stock solution and added to 1 mL of either a rat or human cryopreserved hepatocyte sample to provide a control sample at concentration of 1 million cells/mL. This sample is assayed in triplicate and used as a test sample.
Human and rat hepatocytes are removed from liquid nitrogen storage and thawed by submerging the hepatocyte tube into a pre-heated 37° C. waterbath and gently shaking the tube back & forth until thawed. The thawed hepatocytes are then gently poured into a container of Hepatocyte Basal Medium (50 mL, pre-warmed to 37° C.) and washed. The hepatocyte tube is then rinsed out with pre-warmed Hepatocyte Basal Medium and the washed hepatocytes and rinse are combined and centrifuged at 500 rpm for 4 minutes at room temperature. The supernatant is then discarded and the resulting hepatocyte pellet is resuspended with Hepatocyte Basal Medium (pre-warmed to 37° C.) and the final hepatocyte concentration is adjusted to 1 million cells/mL to provide the final hepatocyte suspension.
A 1 mL aliquot is removed from the 1 million cells/mL final hepatocyte suspension, analyzed in triplicate and placed into 20 mL scintillation vial without a cap. 2 mM of the prodrug test sample is then added into the hepatocyte suspension to provide a 10 μM final concentration in the 1 mL hepatocyte sample. […]
The incubated hepatocyte suspension samples are transferred to a microcentrifuge tube using a transfer pipette and centrifuged at 500 rpm for 4 minutes at room temperature. […] The resulting extract solution is then stored in a refrigerator at 4° C. until ready for use, at which point the sample is first subjected to vortexing/sonication to ensure that all hepatocyte cells have burst. […]

SMILES	IC50 (HuH-1 cells; Homo sapiens)	IC50 (HepG2 cells; Homo sapiens)	Human Hepatocyte 1 hour at 10 μM, NTP (Human Hepatocytes)	also measured
CCOC(=O)[C@H](C)CCOP1(=O)OC[C@H]2S[C@@H](n3ccc(N)nc3=O)[C@@H](F)[C@@H]2O1 (single isomer, unassigned) [Compound 1 Diastereoisomer 1]	< 0.5 µM			
CC(C)OC(=O)[C@H](C)CCOP1(=O)OC[C@H]2S[C@@H](n3ccc(N)nc3=O)[C@@H](F)[C@@H]2O1 (single isomer, unassigned) [Compound 2 Diastereoisomer 1]	< 0.5 µM			
COc1nc(N)nc2c1ncn2[C@@H]1O[C@@H]2COP(=O)(OCC[C@@H](C)C(=O)OC(C)C)O[C@H]2[C@@H]1O (mixture of isomers) [Mixture 5A/5B, Isopropyl (R)-4-(((2S,4aR,6R,7S,7aS)-6-(2-amino-6-methoxy-9H-purin-9-yl)-7-hydroxy-2-oxidotetrahydro-4H-furo[3,2-d][1,3,2]dioxaphosphinin-2-yl)oxy)-2-methylbutanoate and Isopropyl (R)-4-(((2R,4aR,6R,7S,7aS)-6-(2-amino-6-methoxy-9H-purin-9-yl)-7-hydroxy-2-oxidotetrahydro-4H-furo[3,2-d][1,3,2]dioxaphosphinin-2-yl)oxy)-2-methylbutanoate]	≥ 5 µM	≥ 5 µM		
CCOC(=O)[C@H](C)CCOP1(=O)OC[C@H]2S[C@@H](n3ccc(N)nc3=O)[C@@H](F)[C@@H]2O1 (single isomer, unassigned) [Compound 1 Diastereoisomer 2]			A (A=<0.5 μM)	
CC(C)OC(=O)[C@H](C)CCOP1(=O)OC[C@H]2S[C@@H](n3ccc(N)nc3=O)[C@@H](F)[C@@H]2O1 (single isomer, unassigned) [Compound 2 Diastereoisomer 2]		0.5 to 5 µM	A (A=<0.5 μM)	IC50 (HuH-1 cells): < 0.5 µM
CC(C)OC(=O)C(C)CCOP1(=O)OC[C@H]2O[C@@H](n3cc(C(F)(F)F)c(=O)[nH]c3=O)C[C@@H]2O1 (mixture of isomers) [Mixture 6A/6B, Isopropyl 4-(((2S,4aR,6R,7aS)-6-(2,4-dioxo-5-(trifluoromethyl)-3,4-dihydropyrimidin-1 (2H)-yl)-2-oxidotetrahydro-4H-furo[3,2-d][1,3,2]dioxaphosphinin-2-yl)oxy)-2-methylbutanoate and Isopropyl 4-(((2R,4aR,6R,7aS)-6-(2,4-dioxo-5-(trifluoromethyl)-3,4-dihydropyrimidin-1 (2H)-yl)-2-oxidotetrahydro-4H-furo[3,2-d][1,3,2]dioxaphosphinin-2-yl)oxy)-2-methylbutanoate]	≥ 5 µM	≥ 5 µM		
CC(C)OC(=O)[C@@H](C)CCO[P@@]1(=O)OC[C@H]2O[C@@H](n3cnc4c(N)nc(Cl)nc43)C[C@@H]2O1.CC(C)OC(=O)[C@@H](C)CCO[P@]1(=O)OC[C@H]2O[C@@H](n3cnc4c(N)nc(Cl)nc43)C[C@@H]2O1 (single isomer, unassigned; diastereoisomer 1) [Compound 3 Diastereoisomer 1]				IC50 (HuH-1 cells): 0.5 to 5 µM; IC50 (HepG2 cells): < 0.5 µM
CC(C)OC(=O)[C@H](C)CCOP1(=O)OC[C@H]2O[C@@H](n3ccc(NC(=O)c4ccccc4)nc3=O)C(F)(F)[C@@H]2O1 (stereo partly drawn) [Compound 10, Isopropyl (2R)-4-(((4aR,6R,7aR)-6-(4-benzamido-2-oxopyrimidin-1(2H)-yl)-7,7-difluoro-2-oxidotetrahydro-4H-furo[3,2-d][1,3,2]dioxaphosphinin-2-yl)oxy)-2-methylbutanoate]			C (C=≥1 μM)	
